Experimental data published in the supplement of paper PMC11451515.

Test system: SEM cells
Test: cell viability relative to DMSO control; higher = less cytotoxic
Conditions: 48 h
Outline: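 NOMO1, SEM and P12-Ichikawa leukemia cells spent at least four passages adapting to each medium before use. They were seeded at 500 cells/well (NOMO1, SEM) or 1000 cells/well (P12-Ichikawa) in 5 μl in 1536-well plates and pin-dosed with library compounds in DMSO at 11 threefold steps from 47 μM down to 0.79 nM. After 48 h at 37°C, CellTiter-Glo One luminescence was read. Viability is reported as a percentage of the DMSO wells on each plate, with cell-free wells as background.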

[1] = HPLM + 10% dialyzed FBS, 0.000781 µM
[2] = HPLM + 10% dialyzed FBS, 0.00234 µM
[3] = HPLM + 10% dialyzed FBS, 0.00702 µM
[4] = HPLM + 10% dialyzed FBS, 0.0211 µM
[5] = HPLM + 10% dialyzed FBS, 0.0632 µM
[6] = HPLM + 10% dialyzed FBS, 0.19 µM
[7] = HPLM + 10% dialyzed FBS, 0.569 µM
[8] = HPLM + 10% dialyzed FBS, 1.71 µM
[9] = HPLM + 10% dialyzed FBS, 5.12 µM
[10] = HPLM + 10% dialyzed FBS, 15.4 µM
[11] = HPLM + 10% dialyzed FBS, 46.1 µM
[12] = RPMI 5 mM glucose + 10% FBS, 0.000781 µM
[13] = RPMI 5 mM glucose + 10% FBS, 0.00234 µM
[14] = RPMI 5 mM glucose + 10% FBS, 0.00702 µM
[15] = RPMI 5 mM glucose + 10% FBS, 0.0211 µM
[16] = RPMI 5 mM glucose + 10% FBS, 0.0632 µM
[17] = RPMI 5 mM glucose + 10% FBS, 0.19 µM
[18] = RPMI 5 mM glucose + 10% FBS, 0.569 µM
[19] = RPMI 5 mM glucose + 10% FBS, 1.71 µM
[20] = RPMI 5 mM glucose + 10% FBS, 5.12 µM
[21] = RPMI 5 mM glucose + 10% FBS, 15.4 µM
[22] = RPMI 5 mM glucose + 10% FBS, 46.1 µM
[23] = RPMI 5 mM glucose + 10% dialyzed FBS, 0.000781 µM
[24] = RPMI 5 mM glucose + 10% dialyzed FBS, 0.00234 µM
[25] = RPMI 5 mM glucose + 10% dialyzed FBS, 0.00702 µM
[26] = RPMI 5 mM glucose + 10% dialyzed FBS, 0.0211 µM
[27] = RPMI 5 mM glucose + 10% dialyzed FBS, 0.0632 µM
[28] = RPMI 5 mM glucose + 10% dialyzed FBS, 0.19 µM
[29] = RPMI 5 mM glucose + 10% dialyzed FBS, 0.569 µM
[30] = RPMI 5 mM glucose + 10% dialyzed FBS, 1.71 µM
[31] = RPMI 5 mM glucose + 10% dialyzed FBS, 5.12 µM
[32] = RPMI 5 mM glucose + 10% dialyzed FBS, 15.4 µM
[33] = RPMI 5 mM glucose + 10% dialyzed FBS, 46.1 µM

Compound | cell viability [1] [%] | cell viability [2] [%] | cell viability [3] [%] | cell viability [4] [%] | cell viability [5] [%] | cell viability [6] [%] | cell viability [7] [%] | cell viability [8] [%] | cell viability [9] [%] | cell viability [10] [%] | cell viability [11] [%] | cell viability [12] [%] | cell viability [13] [%] | cell viability [14] [%] | cell viability [15] [%] | cell viability [16] [%] | cell viability [17] [%] | cell viability [18] [%] | cell viability [19] [%] | cell viability [20] [%] | cell viability [21] [%] | cell viability [22] [%] | cell viability [23] [%] | cell viability [24] [%] | cell viability [25] [%] | cell viability [26] [%] | cell viability [27] [%] | cell viability [28] [%] | cell viability [29] [%] | cell viability [30] [%] | cell viability [31] [%] | cell viability [32] [%] | cell viability [33] [%]
COc1cc(N2CCC(N(C)C)CC2)ccc1Nc1ncc(Cl)c(Nc2ccccc2P(C)(C)=O)n1 | 117 | 112 | 116 | 114 | 110 | 82.3 | 51 | 28.3 | 17.7 | 11.9 | 5.99 | 114 | 105 | 114 | 109 | 128 | 95.4 | 57.8 | 18.2 | 8.88 | 6.45 | 4.89 | – | – | – | – | – | – | – | – | – | – | –
CCOC(=O)/C=C/[C@H](C[C@@H]1CCNC1=O)NC(=O)[C@@H](CC(=O)[C@@H](NC(=O)c1cc(C)on1)C(C)C)Cc1ccc(F)cc1 | 90.8 | 101 | 103 | 90.4 | 111 | 116 | 110 | 116 | 115 | 113 | 105 | 115 | 121 | 118 | 79.8 | 127 | 116 | 123 | 127 | 115 | 97.3 | 104 | 100 | 120 | 119 | 82.5 | 136 | 133 | 128 | 127 | 129 | 132 | 108
CN(C)C(=O)C(CCN1CCC(O)(c2ccc(Cl)cc2)CC1)(c1ccccc1)c1ccccc1 | 68.1 | 109 | 117 | 130 | 127 | 121 | 122 | 117 | 108 | 86.6 | 23.5 | 57.8 | 108 | 141 | 127 | 114 | 127 | 140 | 117 | 110 | 75.5 | 10.3 | – | – | – | – | – | – | – | – | – | – | –
OCc1ccc(-c2ccc(-c3ccc(CO)s3)o2)s1 | 117 | 118 | 94.3 | 115 | 107 | 103 | 104 | 103 | 88.6 | 77.7 | 93.8 | 87.3 | 105 | 83.8 | 81.5 | 79.1 | 87.8 | 79.3 | 80.6 | 77.1 | 61.3 | 66.7 | 114 | 124 | 95.7 | 113 | 119 | 105 | 110 | 99.4 | 83.9 | 85.8 | 114
COc1cc(CNC(=O)CCCC/C=C/C(C)C)ccc1O | 88.8 | 92.6 | 104 | 99 | 101 | 96.6 | 79.7 | 36.7 | 32.9 | 29.7 | 18.6 | 110 | 110 | 121 | 123 | 107 | 111 | 56.7 | 19.3 | 21.4 | 15.9 | 12.5 | 94.3 | 93.2 | 98.7 | 101 | 94.6 | 93.8 | 86.6 | 23.6 | 27.2 | 19 | 15.4
CC(C)C[C@H](NC(=O)[C@@H](O)[C@H](N)Cc1ccccc1)C(=O)O | 86 | 122 | 121 | 131 | 136 | 119 | 114 | 128 | 120 | 114 | 10.7 | 59.2 | 122 | 127 | 123 | 133 | 115 | 118 | 121 | 109 | 117 | 8.04 | 62.3 | 119 | 136 | 135 | 129 | 123 | 127 | 132 | 131 | 116 | 13.2
CC(C)(O)c1cc2nc(-c3cnc(N)nc3)nc(N3CCOCC3)c2s1 | 122 | 125 | 99.7 | 113 | 106 | 106 | 77.2 | 59.9 | 44.5 | 41 | 38 | 82.9 | 79.1 | 74.3 | 76 | 78.2 | 68.4 | 57.1 | 39.1 | 29.1 | 26.7 | 23.3 | 106 | 113 | 97.7 | 107 | 105 | 94.7 | 81.4 | 52.3 | 48.1 | 47.8 | 37.3
Cc1ncc([N+](=O)[O-])n1CC(C)O (configuration not stated) | 60.5 | 75.1 | 69.3 | 75.5 | 57.6 | 71.4 | 91.4 | 88.1 | 81.6 | 82.8 | 13.3 | 78.9 | 99.3 | 89.4 | 99.8 | 64.6 | 97.8 | 102 | 110 | 96.2 | 101 | 14.8 | 84.2 | 101 | 98.4 | 99.3 | 84.6 | 104 | 118 | 119 | 110 | 99.6 | 14
